≈ marks a conversion by molar mass, not a printed value.
Columns and labels:
[1] = Human liver microsome (HLM) metabolic stability assay; assay type: in vitro ADME; settings: human liver microsomes
Summary of the method: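 Remaining parent measured by LC/MS/MS (ESI, MRM) at 5, 15, 30 and 60 min relative to 0 min. Incubation: 1 uM compound, HLMs, NADPH-started, 37° C., 60 min total, single replicate. Slope of ln(% remaining) gives t1/2 = 0.693/slope, then CLint, CLh and % Qh.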

[2] = biological target: human soluble guanylate cyclase alpha 1 and beta 1 subunits (sGC) (Homo sapiens (Human), UniProt Q02108+Q02153); assay: sGC cellular activator assay (cGMP, HTRF), in the presence and absence of 50% human serum; assay type: cell-based; settings: CHO cells stably expressing human sGC alpha 1/beta 1, preincubated with 40 microM ODQ; cGMP by HTRF; Table 2 does not state whether with or without 50% human serum
Chain of human soluble guanylate cyclase alpha 1 and beta 1 subunits (sGC) (Q02108 whole entry partner): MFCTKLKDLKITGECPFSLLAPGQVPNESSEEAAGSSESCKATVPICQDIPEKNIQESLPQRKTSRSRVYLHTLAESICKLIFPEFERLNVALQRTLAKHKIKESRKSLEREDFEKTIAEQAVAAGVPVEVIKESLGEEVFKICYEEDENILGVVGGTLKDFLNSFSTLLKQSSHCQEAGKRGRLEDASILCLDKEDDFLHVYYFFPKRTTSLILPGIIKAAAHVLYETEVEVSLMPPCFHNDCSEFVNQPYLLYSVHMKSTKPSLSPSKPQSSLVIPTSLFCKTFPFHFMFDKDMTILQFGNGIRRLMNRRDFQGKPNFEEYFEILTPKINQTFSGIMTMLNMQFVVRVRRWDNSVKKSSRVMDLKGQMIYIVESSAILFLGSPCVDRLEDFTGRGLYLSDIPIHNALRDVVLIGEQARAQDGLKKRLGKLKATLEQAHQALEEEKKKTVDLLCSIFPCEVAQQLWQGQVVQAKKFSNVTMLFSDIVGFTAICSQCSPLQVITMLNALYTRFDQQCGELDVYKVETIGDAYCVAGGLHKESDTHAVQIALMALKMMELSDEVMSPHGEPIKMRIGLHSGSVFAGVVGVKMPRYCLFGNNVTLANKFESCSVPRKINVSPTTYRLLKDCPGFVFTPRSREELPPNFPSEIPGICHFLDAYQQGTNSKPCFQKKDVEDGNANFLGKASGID
Chain of human soluble guanylate cyclase alpha 1 and beta 1 subunits (sGC) (Q02153 whole entry): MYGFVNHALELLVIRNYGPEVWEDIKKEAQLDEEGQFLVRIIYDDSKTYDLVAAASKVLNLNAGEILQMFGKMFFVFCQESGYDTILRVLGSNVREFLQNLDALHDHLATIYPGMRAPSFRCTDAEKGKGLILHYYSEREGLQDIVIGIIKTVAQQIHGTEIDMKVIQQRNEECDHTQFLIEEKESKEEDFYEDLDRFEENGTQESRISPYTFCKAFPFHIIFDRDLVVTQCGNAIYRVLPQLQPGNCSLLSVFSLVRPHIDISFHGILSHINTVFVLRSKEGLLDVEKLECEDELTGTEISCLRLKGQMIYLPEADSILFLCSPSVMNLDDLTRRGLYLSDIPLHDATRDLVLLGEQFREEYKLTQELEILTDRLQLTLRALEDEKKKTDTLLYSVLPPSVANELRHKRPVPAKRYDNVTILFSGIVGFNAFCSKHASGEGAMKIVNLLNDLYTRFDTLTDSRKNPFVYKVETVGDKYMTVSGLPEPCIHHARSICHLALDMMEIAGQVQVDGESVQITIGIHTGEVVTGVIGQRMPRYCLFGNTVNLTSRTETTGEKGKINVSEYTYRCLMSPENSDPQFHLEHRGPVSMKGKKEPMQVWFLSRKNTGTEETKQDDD
Summary of the method: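 First, CHO-sGC (human α1β1) cells get 1 h ODQ at 40 microM with IBMX and 0.1% BSA. Finally, cGMP is quantified by HTRF and EC50 computed.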

[3] = physchem; settings: kinetic from dmso stock
[4] = pH 2.2, aqueous buffer, Solubility (pH 2.2)
[5] = pH 4.5, aqueous buffer, Solubility (pH 4.5)
[6] = pH 6.8, aqueous buffer, Solubility (pH 6.8)

Structure (SMILES)	Metabolic stability (Qh %), % hepatic blood flow [1] [%]	EC50 [2] [nM]	solubility at 24 h [3, 4] [µg/mL]	solubility at 24 h [3, 5] [µg/mL]	solubility at 24 h [3, 6] [µg/mL]
CCc1cc(COc2c(C)cccc2-c2cccc(N3C[C@@H]4C[C@]4(C(=O)O)[C@H]3COC)n2)cc2c1CN(C1COC1)CC2 [Compound 54]	39	16	130 (≈ 223 µM)	90 (≈ 154 µM)	81 (≈ 139 µM)
CCc1cc(COc2c(C)cccc2-c2cccc(N3C[C@@H]4C[C@]4(C(=O)O)[C@H]3COC)n2)cc2c1CN(CC1COCCO1)CC2 (stereo partly shown) [Compound 56]	<24	26	140 (≈ 223 µM)	120 (≈ 191 µM)	88 (≈ 140 µM)
COC[C@H]1N(c2cccc(-c3cccc(C)c3OCc3cc4c(c(OC)c3)CN(C3COC3)CC4)n2)C[C@@H]2C[C@@]21C(=O)O [Compound 58]	<24	30	110 (≈ 188 µM)	90 (≈ 154 µM)	80 (≈ 137 µM)
COC[C@H]1N(c2cccc(-c3cccc(C)c3OCc3cc(C)c4c(c3F)CCN(C3CCOCC3)C4)n2)C[C@@H]2C[C@@]21C(=O)O [Compound 59]	<24	8	120 (≈ 195 µM)	99 (≈ 161 µM)	74 (≈ 120 µM)
COC[C@H]1N(c2cccc(-c3cccc(C)c3OCc3ccc4c(c3C)CCN(C3COC3)CC4)n2)C[C@@H]2C[C@@]21C(=O)O [Compound 60]	<24	6	120 (≈ 206 µM)	100 (≈ 171 µM)	79 (≈ 135 µM)
COC[C@H]1N(c2cccc(-c3cccc(C)c3OCc3ccc4c(c3C)CCN(C3CCOCC3)CC4)n2)C[C@@H]2C[C@@]21C(=O)O [Compound 61]	<24	8	110 (≈ 180 µM)	96 (≈ 157 µM)	74 (≈ 121 µM)
COC[C@@H]1N(c2cccc(-c3cccc(C)c3OCc3cc(C)c4c(c3)CCN(C3CCOCC3)C4)n2)C[C@H]2C[C@]21C(=O)O [Compound 63]	<24	96	130 (≈ 217 µM)	130 (≈ 217 µM)	130 (≈ 217 µM)
CO[C@H]1CN(c2cccc(-c3cccc(C)c3OCc3ccc4c(c3)CCN(C3CCOCC3)C4)n2)CC[C@H]1C(=O)O [Compound 64, (3R,4R)-3-Methoxy-6′-{3-methyl-2-[2-(tetrahydro-pyran-4-yl)-1,2,3,4-tetrahydro-isoquinolin-6-ylmethoxy]-phenyl}-3,4,5,6-tetrahydro-2H-[1,2′]bipyridinyl-4-carboxylic acid]	29	36	100 (≈ 175 µM)	88 (≈ 154 µM)	69 (≈ 121 µM)
CO[C@H]1CN(c2cccc(-c3cccc(C)c3OCc3ccc4c(c3C)CCN(C3COC3)C4)n2)CC[C@H]1C(=O)O [Compound 66]	33	20	100 (≈ 179 µM)	84 (≈ 151 µM)	64 (≈ 115 µM)
CO[C@H]1CN(c2cccc(-c3cc(C)ccc3OCc3cc(C)c4c(c3)CCN(C3CCOCC3)C4)n2)CC[C@H]1C(=O)O [Compound 72]	<24	64	120 (≈ 205 µM)	100 (≈ 171 µM)	74 (≈ 126 µM)
CO[C@H]1CN(c2cccc(-c3cc(C)ccc3OCc3ccc4c(c3C)CCN(C3CCOCC3)CC4)n2)CC[C@H]1C(=O)O [Compound 73]	28	57	110 (≈ 183 µM)	93 (≈ 155 µM)	69 (≈ 115 µM)
CO[C@@H]1CN(c2cccc(-c3cc(C)ccc3OCc3ccc4c(c3)CCN(C3CCOCC3)C4)n2)CC[C@@H]1C(=O)O [Compound 74]	<24	20	120 (≈ 210 µM)	100 (≈ 175 µM)	80 (≈ 140 µM)
CO[C@@H]1CN(c2cccc(-c3cc(C)ccc3OCc3ccc4c(c3C)CCN(C3CCOCC3)C4)n2)CC[C@@H]1C(=O)O [Compound 75]	<24	15	120 (≈ 205 µM)	110 (≈ 188 µM)	74 (≈ 126 µM)

Continued by falling EC50 [2], values first:

Metabolic stability (Qh %), % hepatic blood flow [1] [%]	EC50 [2] [nM]	solubility at 24 h [3, 4] [µg/mL]	solubility at 24 h [3, 5] [µg/mL]	solubility at 24 h [3, 6] [µg/mL]	Structure (SMILES)
<24	465	130 (≈ 217 µM)	130 (≈ 217 µM)	130 (≈ 217 µM)	COC[C@@H]1N(c2cccc(-c3cccc(C)c3OCc3cc(C)c4c(c3)CCN(C3CCOCC3)C4)n2)C[C@@H]2C[C@@]21C(=O)O [Compound 62]
<24	120	130 (≈ 227 µM)	120 (≈ 210 µM)	83 (≈ 145 µM)	CO[C@H]1CN(c2cccc(-c3cc(C)ccc3OCc3ccc4c(c3)CCN(C3CCOCC3)C4)n2)CC[C@H]1C(=O)O [Compound 70]
<24	110	130 (≈ 222 µM)	110 (≈ 188 µM)	81 (≈ 138 µM)	CO[C@H]1CN(c2cccc(-c3cc(C)ccc3OCc3ccc4c(c3C)CCN(C3CCOCC3)C4)n2)CC[C@H]1C(=O)O [Compound 71]
31	29	130 (≈ 222 µM)	110 (≈ 188 µM)	80 (≈ 137 µM)	CO[C@H]1CN(c2cccc(-c3cccc(C)c3OCc3ccc4c(c3C)CCN(C3CCOCC3)C4)n2)CC[C@H]1C(=O)O [Compound 65]
<24	25	130 (≈ 222 µM)	110 (≈ 188 µM)	80 (≈ 137 µM)	CO[C@@H]1CN(c2cccc(-c3cc(C)ccc3OCc3cc(C)c4c(c3)CCN(C3CCOCC3)C4)n2)CC[C@@H]1C(=O)O [Compound 76]
<24	23	100 (≈ 175 µM)	92 (≈ 161 µM)	71 (≈ 124 µM)	CO[C@@H]1CN(c2cccc(-c3cccc(C)c3OCc3ccc4c(c3)CCN(C3CCOCC3)C4)n2)CC[C@@H]1C(=O)O [Compound 67]
<24	21	120 (≈ 196 µM)	99 (≈ 161 µM)	78 (≈ 127 µM)	COC[C@H]1N(c2cccc(-c3cccc(C)c3OCc3cc4c(c(OC)c3)CN(C3CCOCC3)CC4)n2)C[C@@H]2C[C@@]21C(=O)O [Compound 57]
<24	16	130 (≈ 233 µM)	110 (≈ 197 µM)	89 (≈ 160 µM)	CO[C@@H]1CN(c2cccc(-c3cccc(C)c3OCc3ccc4c(c3C)CCN(C3COC3)C4)n2)CC[C@@H]1C(=O)O [Compound 69]
<24	14	140 (≈ 239 µM)	120 (≈ 205 µM)	93 (≈ 159 µM)	CO[C@@H]1CN(c2cccc(-c3cccc(C)c3OCc3ccc4c(c3C)CCN(C3CCOCC3)C4)n2)CC[C@@H]1C(=O)O [Compound 68]
<24	10	150 (≈ 251 µM)	110 (≈ 184 µM)	82 (≈ 137 µM)	CCc1cc(COc2c(C)cccc2-c2cccc(N3C[C@@H]4C[C@]4(C(=O)O)[C@H]3COC)n2)cc2c1CN(C1CCOC1)CC2 (stereo partly shown) [Compound 55]
